Assays:
calcineurin = calcineurin activity in the cortical and hippocampal tissue; settings: without HFS; Nimodipine 2 nmol; mean ± S.D., n = 5; control 7.8 ± 0.6
Description: The rats were anaesthetized with urethane carbonate. The recording and stimulating electrodes were made from Teflon coated stainless steel wires. The bipolar stimulating electrode was sterotaxically placed in the entorhinal cortex to stimulate the perforant path, and the evoked potential was extracellular recorded from the dentate gyrus granule cell layer of ipsilateral. The population spike (PS) is served as an indication of granule cell's excitation. Long term potentiation (LTP) was induced by a 200 Hz high frequency stimulation 5×single square wave pulses of 0.2 ms duration. The drug or vehicle (DMSO) were injected into lateral cerebral ventricle in a 5 μl volume over a 5 min period via a Hamilton syringe.

calpain = calpain activity in the cortical and hippocampal tissue; type: in vivo, rats; settings: without HFS, Nimodipine 2 nmol, mean ± S.D., n = 5; for calpain activity, Cortical tissue: control 1.5 ± 0.2; for calpain activity, Hippocampal tissue: control 1.7 ± 0.5
Description: The rats were anaesthetized with urethane carbonate.

[1] = system: animals with anisodine-induced memory impairment; assay: step-down test, memory impairment induced by anisodine; type: in vivo; settings: 500 mg/kg oral once
Description: (§1) This invention used one trial avoidance task—step-down and step-through tests and water maze to compare the improving memorial effects of (±), (−) clausenamide. The drugs were given orally once to animals before experiment in step-down and step-through tests. The water maze test lasted for 5 days in succession. The results were expressed as latency and errors number.

[2] = system: animals with anisodine-induced memory impairment; assay: memory impairment induced by anisodine in water maze test; type: in vivo; settings: anisodine + drug 500 mg/kg
Description: as §1

A β 25-35 treated rats = assay: Morris water maze, A β 25-35 induced impairment of memory; type: in vivo
Description: Pathological features of Alzheimer's disease (AD) include extensive neuronal loss and the presence of numerous neurofibrillary tangles and senile plaques in the brain. The senile plaques contain amyloid fibrils derived from a 39-43 amino acids peptide referred to as β-amyloid or A β which can produce neurotoxicity. A β 25-35 poccesses the similar neurotoxicity and ability of self-aggregation as A β 1-42. Administrated aggregated A β 25-35 into rat's lateral cerebral ventricle induced memory impairment in Morris water maze.
With increasing of training days, the initial heading angle became small. On the 3th day, the initial heading angle of A β group was larger than control. […] (see Tab.3)
There are four strategies for finding platform in Morris water maze: random, circle, taxis and line. In the beginning of training the search strategies for finding target is mainly circle and random, with the increasing of training, the percentage of the two strategies declined gradually, Beginning from the 3th day, declining speed in control and (−) clausenamide group was faster than A β,(+) clausenamide and piracetam groups.

[3] = system: β-AP (25-35)-treated rats; assay: one trial passive avoidance of β-AP (25-35)-treated rats; type: in vivo; settings: β-AP-treated + drug 400 mg/kg, n = 8
animals [4] = assay: nootropic action overall: step-down, step-through and water maze tests; type: in vivo; settings: oral; Tab.4 to Tab.7
Method: This invention used one trial avoidance task—step-down and step-through tests and water maze to compare the improving memorial effects of (±), (−) clausenamide.
The drugs were given orally once to animals before experiment in step-down and step-through tests. The water maze test lasted for 5 days in succession. The results were expressed as latency and errors number.
The effective dose of piracetam was 500 mg.kg^−1.

animals [5] = assay: memory in water maze test; type: in vivo; settings: 500 mg/kg
Description: as §1

[6] = system: animals with anisodine-induced memory impairment; assay: step-through test, memory impairment induced by anisodine; type: in vivo; settings: 500 mg/kg oral once
Description: as §1

Question: For `NC(CCCP(=O)(O)O)C(=O)O` (stereo not drawn) [AP5], which “calcineurin activity, Hippocampal tissue” value (calcineurin) is on record?
Answer: 8.1 ± 0.7 (μmol Pi)/hr/μ g protein

Question: What about the “calpain activity, Cortical tissue” value (calpain) of the same compound?
Answer: 1.6 ± 0.4 ΔA595nm/hr/mg protein

Question: And the “calpain activity, Hippocampal tissue” value (calpain)?
Answer: 1.6 ± 0.6 ΔA595nm/hr/mg protein

Question: Which “calcineurin activity, Hippocampal tissue” value (calcineurin) does the source give for `COCCOC(=O)C1=C(C)NC(C)=C(C(=O)OC(C)C)C1c1cccc([N+](=O)[O-])c1` (stereo not drawn) [Nimodipine] here?
Answer: 7.7 ± 0.8 (μmol Pi)/hr/μ g protein

Question: What about the “calpain activity, Cortical tissue” value (calpain) of the same compound?
Answer: 1.7 ± 0.3 ΔA595nm/hr/mg protein

Question: And the “calpain activity, Hippocampal tissue” value (calpain)?
Answer: 1.8 ± 0.5 ΔA595nm/hr/mg protein

Question: With `NC(=O)CN1CCCC1=O` [Piracetam, 2-oxo-1 pyrolidine acetamide] as the compound, how does the “Error number, Step-down” value ([1]; 0.9% Nacl + anisodine 0.9 ± 1.0) read?
Answer: 0.7 ± 0.5

Question: What about the “Latencies, Step-down” value ([1]; 0.9% Nacl + anisodine 184 ± 105) of the same compound?
Answer: 180 ± 110 s

Question: What about the Errors number [2] of the same compound?
Answer: 23.5 ± 25.0

Question: And the “initial heading angle on the 3th day (in words)” value (A β 25-35 treated rats; (−),(+) clausenamide 8 and 40 mg.kg^−1, piracetam 400 mg·kg^−1, vs A β group)?
Answer: showed no improving effects

Question: And the “latency for finding the platform, 3th to 5th day” value (A β 25-35 treated rats; (−),(+) clausenamide 8 and 40 mg·kg^−1, piracetam 400 mg.kg^−1, vs A β group)?
Answer: showed no effect

Question: What about the “initial heading angle, training day 1” value (A β 25-35 treated rats; A β 25-35 + drug at 400 mg/kg) of the same compound?
Answer: 92.5 ± 28.9

Question: And the “initial heading angle, training day 2” value (A β 25-35 treated rats; A β 25-35 + drug at 400 mg/kg)?
Answer: 87.3 ± 24.2

Question: What about the “initial heading angle, training day 3” value (A β 25-35 treated rats; A β 25-35 + drug at 400 mg/kg) of the same compound?
Answer: 74.6 ± 23.7

Question: And the “initial heading angle, training day 4” value (A β 25-35 treated rats; A β 25-35 + drug at 400 mg/kg)?
Answer: 62.5 ± 19.6

Question: What about the “initial heading angle, training day 5” value (A β 25-35 treated rats; A β 25-35 + drug at 400 mg/kg) of the same compound?
Answer: 44.5 ± 14.3

Question: What about the “Number of error, Acquisition” value [3] of the same compound?
Answer: 1.6 ± 0.26

Question: What about the “Number of error, Training” value [3] of the same compound?
Answer: 4.1 ± 1.14

Question: What about the “effective dose of piracetam (comparator)” value (animals [4]) of the same compound?
Answer: 500 mg/kg

Question: And the “Lalencies reaching platform, 3rd day” value (animals [5]; 0.9% Nacl 25.8 ± 18.4)?
Answer: 18.6 ± 9.9 s

Question: What about the “Lalencies reaching platform, 4th day” value (animals [5]; 0.9% Nacl 26.1 ± 38.4) of the same compound?
Answer: 16.7 ± 16.3 s

Question: What about the “Lalencies reaching platform, Second day” value (animals [5]; N = 10, X ± S.D., 0.9% Nacl 32.4 ± 29.2) of the same compound?
Answer: 32.2 ± 22.6 s

Question: And the “Latencies, Step-through” value ([6]; 0.9% Nacl + anisodine 24.4 ± 59)?
Answer: 107 ± 110 s

Question: What about the “Error number, Step-through” value ([6]; N = 10, X ± SD, 0.9% Nacl + anisodine 12.7 ± 4.6) of the same compound?
Answer: 4.1 ± 3.2

Source: patent US6787564B2, “Optically active clausenamides, process of the preparation thereof, pharmaceutical composition containing the same and their medical use” (Institute of Materia Medica, Chinese Academy of Medical …, priority 2002, dated 2004)
